Calls of active or inactive are those of the source.
Key:
[1] = tested on: Malme-3M; assay: Growth inhibition of human MALME-3M cells at 10 uM after 48 hrs by sulforhodamine B assay; format: functional; details: read-out: GI
[2] = tested on: LOX IMVI; assay: Growth inhibition of human LOXIMVI cells at 10 uM after 48 hrs by sulforhodamine B assay; format: functional; details: read-out: GI
[3] = tested on: U-251; assay: Growth inhibition of human U251 cells at 10 uM after 48 hrs by sulforhodamine B assay; format: functional; details: U-251, 48 h, read-out: GI
[4] = tested on: SNB-75; assay: Growth inhibition of human SNB75 cells at 10 uM after 48 hrs by sulforhodamine B assay; format: functional
[5] = tested on: SNB-19; assay: Growth inhibition of human SNB19 cells at 10 uM after 48 hrs by sulforhodamine B assay; format: functional
[6] = tested on: SF-539; assay: Growth inhibition of human SF539 cells at 10 uM after 48 hrs by sulforhodamine B assay; format: functional; details: SF-539, 48 h, read-out: GI
[7] = tested on: SF-295; assay: Growth inhibition of human SF295 cells at 10 uM after 48 hrs by sulforhodamine B assay; format: functional; details: SF-295, 48 h, read-out: GI
[8] = tested on: SF-268; assay: Growth inhibition of human SF268 cells at 10 uM after 48 hrs by sulforhodamine B assay; format: functional
[9] = tested on: KM12; assay: Growth inhibition of human KM12 cells at 10 uM after 48 hrs by sulforhodamine B assay; format: functional
[10] = tested on: SW-620; assay: Growth inhibition of human SW620 cells at 10 uM after 48 hrs by sulforhodamine B assay; format: functional
[11] = tested on: HT-29; assay: Growth inhibition of human HT-29 cells at 10 uM after 48 hrs by sulforhodamine B assay; format: functional; details: HT-29, 48 h, read-out: GI
[12] = tested on: HCT-15; assay: Growth inhibition of human HCT15 cells at 10 uM after 48 hrs by sulforhodamine B assay; format: functional
[13] = tested on: HCT-116; assay: Growth inhibition of human HCT116 cells at 10 uM after 48 hrs by sulforhodamine B assay; format: functional
[14] = tested on: HCC 2998; assay: Growth inhibition of human HCC2998 cells at 10 uM after 48 hrs by sulforhodamine B assay; format: functional
[15] = tested on: COLO 205; assay: Growth inhibition of human COLO205 cells at 10 uM after 48 hrs by sulforhodamine B assay; format: functional; details: COLO 205, 48 h, read-out: GI
[16] = tested on: NCI-H522; assay: Growth inhibition of human NCI-H522 cells at 10 uM after 48 hrs by sulforhodamine B assay; format: functional
[17] = tested on: NCI-H460; assay: Growth inhibition of human NCI-H460 cells at 10 uM after 48 hrs by sulforhodamine B assay; format: functional
[18] = tested on: NCI-H322M; assay: Growth inhibition of human NCI-H322M cells at 10 uM after 48 hrs by sulforhodamine B assay; format: functional; details: read-out: GI
[19] = tested on: NCI-H23; assay: Growth inhibition of human NCI-H23 cells at 10 uM after 48 hrs by sulforhodamine B assay; format: functional
[20] = tested on: NCI-H226; assay: Growth inhibition of human NCI-H226 cells at 10 uM after 48 hrs by sulforhodamine B assay; format: functional
[21] = tested on: HOP-62; assay: Growth inhibition of human HOP62 cells at 10 uM after 48 hrs by sulforhodamine B assay; format: functional
[22] = Growth inhibition of human EKVX cells at 10 uM after 48 hrs by sulforhodamine B assay; format: functional; details: read-out: GI
[23] = tested on: A549; assay: Growth inhibition of human A549/ATCC cells at 10 uM after 48 hrs by sulforhodamine B assay; format: functional; details: A549, 48 h, read-out: GI
[24] = tested on: SR; assay: Growth inhibition of human SR cells at 10 uM after 48 hrs by sulforhodamine B assay; format: functional
[25] = tested on: RPMI-8226; assay: Growth inhibition of human RPMI8226 cells at 10 uM after 48 hrs by sulforhodamine B assay; format: functional; details: RPMI-8226, 48 h, read-out: GI
[26] = tested on: MOLT-4; assay: Growth inhibition of human MOLT4 cells at 10 uM after 48 hrs by sulforhodamine B assay; format: functional; details: MOLT-4, 48 h, read-out: GI
[27] = tested on: K562; assay: Growth inhibition of human K562 cells at 10 uM after 48 hrs by sulforhodamine B assay; format: functional
[28] = tested on: HL-60(TB); assay: Growth inhibition of human HL-60(TB) cells at 10 uM after 48 hrs by sulforhodamine B assay; format: functional
[29] = tested on: CCRF-CEM; assay: Growth inhibition of human CCRF-CEM cells at 10 uM after 48 hrs by sulforhodamine B assay; format: functional; details: read-out: GI
[30] = target: Carbonic anhydrase 9 (Homo sapiens, UniProt Q16790); assay: Inhibition of human carbonic anhydrase 9 after 15 mins by stopped flow CO2 hydration assay
[31] = tested on: T47D; assay: Growth inhibition of human T47D cells at 10 uM after 48 hrs by sulforhodamine B assay; format: functional; details: read-out: GI
[32] = tested on: BT-549; assay: Growth inhibition of human BT549 cells at 10 uM after 48 hrs by sulforhodamine B assay; format: functional
[33] = tested on: Hs-578T; assay: Growth inhibition of human Hs 578T cells at 10 uM after 48 hrs by sulforhodamine B assay; format: functional
[34] = tested on: MDA-MB-231; assay: Growth inhibition of human MDA-MB-231 cells at 10 uM after 48 hrs by sulforhodamine B assay; format: functional
[35] = tested on: MCF7; assay: Growth inhibition of human MCF7 cells at 10 uM after 48 hrs by sulforhodamine B assay; format: functional
[36] = tested on: DU-145; assay: Growth inhibition of human DU145 cells at 10 uM after 48 hrs by sulforhodamine B assay; format: functional
[37] = tested on: PC-3; assay: Growth inhibition of human PC3 cells at 10 uM after 48 hrs by sulforhodamine B assay; format: functional; details: PC-3, 48 h, read-out: GI
[38] = tested on: UO-31; assay: Growth inhibition of human UO31 cells at 10 uM after 48 hrs by sulforhodamine B assay; format: functional; details: UO-31, 48 h, read-out: GI
[39] = tested on: TK-10; assay: Growth inhibition of human TK10 cells at 10 uM after 48 hrs by sulforhodamine B assay; format: functional; details: TK-10, 48 h, read-out: GI
[40] = tested on: SN12C; assay: Growth inhibition of human SN12C cells at 10 uM after 48 hrs by sulforhodamine B assay; format: functional
[41] = tested on: CAKI-1; assay: Growth inhibition of human CAKI-1 cells at 10 uM after 48 hrs by sulforhodamine B assay; format: functional; details: CAKI-1, 48 h, read-out: GI
[42] = tested on: ACHN; assay: Growth inhibition of human ACHN cells at 10 uM after 48 hrs by sulforhodamine B assay; format: functional
[43] = tested on: A498; assay: Growth inhibition of human A498 cells at 10 uM after 48 hrs by sulforhodamine B assay; format: functional
[44] = tested on: 786-0; assay: Growth inhibition of human 786-0 cells at 10 uM after 48 hrs by sulforhodamine B assay; format: functional
[45] = tested on: SK-OV-3; assay: Growth inhibition of human SKOV3 cells at 10 uM after 48 hrs by sulforhodamine B assay; format: functional; details: SK-OV-3, 48 h, read-out: GI
[46] = tested on: NCI/ADR-RES; assay: Growth inhibition of human NCI-ADR-RES cells at 10 uM after 48 hrs by sulforhodamine B assay; format: functional
[47] = tested on: OVCAR-8; assay: Growth inhibition of human OVCAR8 cells at 10 uM after 48 hrs by sulforhodamine B assay; format: functional
[48] = tested on: OVCAR-5; assay: Growth inhibition of human OVCAR5 cells at 10 uM after 48 hrs by sulforhodamine B assay; format: functional; details: OVCAR-5, 48 h, read-out: GI
[49] = tested on: OVCAR-4; assay: Growth inhibition of human OVCAR4 cells at 10 uM after 48 hrs by sulforhodamine B assay; format: functional
[50] = tested on: OVCAR-3; assay: Growth inhibition of human OVCAR3 cells at 10 uM after 48 hrs by sulforhodamine B assay; format: functional
[51] = tested on: IGROV-1; assay: Growth inhibition of human IGROV1 cells at 10 uM after 48 hrs by sulforhodamine B assay; format: functional; details: IGROV-1, 48 h, read-out: GI
[52] = tested on: UACC-62; assay: Growth inhibition of human UACC62 cells at 10 uM after 48 hrs by sulforhodamine B assay; format: functional
[53] = tested on: UACC-257; assay: Growth inhibition of human UACC257 cells at 10 uM after 48 hrs by sulforhodamine B assay; format: functional
[54] = tested on: SK-MEL-5; assay: Growth inhibition of human SK-MEL-5 cells at 10 uM after 48 hrs by sulforhodamine B assay; format: functional; details: SK-MEL-5, 48 h, read-out: GI
[55] = tested on: SK-MEL-28; assay: Growth inhibition of human SK-MEL-28 cells at 10 uM after 48 hrs by sulforhodamine B assay; format: functional, cell-based
[56] = tested on: SK-MEL-2; assay: Growth inhibition of human SK-MEL-2 cells at 10 uM after 48 hrs by sulforhodamine B assay; format: functional
[57] = tested on: MDA-MB-435; assay: Growth inhibition of human MDA-MB-435 cells at 10 uM after 48 hrs by sulforhodamine B assay; format: functional
[58] = tested on: M14; assay: Growth inhibition of human M14 cells at 10 uM after 48 hrs by sulforhodamine B assay; format: functional

CCCCc1c(C)nn(-c2ccncc2S(N)(=O)=O)c1C
16%: inhibition of growth at 10 µM [54]
6%: inhibition of growth at 10 µM [22]
17%: inhibition of growth at 10 µM [23] | inhibition of growth at 10 µM [26]
23%: inhibition of growth at 10 µM [38]
inactive: growth inhibition (GI) [4] | growth inhibition (GI) [5] | growth inhibition (GI) [8] | growth inhibition (GI) [9] | growth inhibition (GI) [10] | growth inhibition (GI) [12] | growth inhibition (GI) [13] | growth inhibition (GI) [14] | growth inhibition (GI) [16] | growth inhibition (GI) [17] | growth inhibition (GI) [19] | growth inhibition (GI) [20] | growth inhibition (GI) [21] | growth inhibition (GI) [24] | growth inhibition (GI) [27] | growth inhibition (GI) [28] | growth inhibition (GI) [32] | growth inhibition (GI) [33] | growth inhibition (GI) [34] | growth inhibition (GI) [35] | growth inhibition (GI) [36] | growth inhibition (GI) [40] | growth inhibition (GI) [42] | growth inhibition (GI) [43] | growth inhibition (GI) [44] | growth inhibition (GI) [46] | growth inhibition (GI) [47] | growth inhibition (GI) [49] | growth inhibition (GI) [50] | growth inhibition (GI) [52] | growth inhibition (GI) [53] | growth inhibition (GI) [55] | growth inhibition (GI) [56] | growth inhibition (GI) [57] | growth inhibition (GI) [58]
11%: inhibition of growth at 10 µM [31]
3%: inhibition of growth at 10 µM [6] | inhibition of growth at 10 µM [51]
5%: inhibition of growth at 10 µM [41]
8%: inhibition of growth at 10 µM [3] | inhibition of growth at 10 µM [7] | inhibition of growth at 10 µM [29] | inhibition of growth at 10 µM [37] | inhibition of growth at 10 µM [48]
2%: inhibition of growth at 10 µM [2] | inhibition of growth at 10 µM [45]
9%: inhibition of growth at 10 µM [39]
27%: inhibition of growth at 10 µM [25]
1%: inhibition of growth at 10 µM [15]
15%: inhibition of growth at 10 µM [11]
7%: inhibition of growth at 10 µM [18]
13%: inhibition of growth at 10 µM [1]
48.6 nM: Ki [30]

Source: ChEMBL document CHEMBL2434896, “Carbonic anhydrase inhibitors. Synthesis of heterocyclic 4-substituted pyridine-3-sulfonamide derivatives and their inhibition of the human cytosolic isozymes I and II and transmembrane tumor-associated isozymes IX and XII” (Eur J Med Chem, 2013)
